Tested on: Fab S8-gp120 III-B binding
Experiment: Peptide inhibition of gp120-Fab S8 binding (ELISA)
Parameters: species or system HIV-1
Procedure: Peptides from selected phage clones were synthesised by Isogen (Maarssen, The Netherlands). For binding competition experiments, purified S8 Fab (1 μg/ml) was incubated (4° C., 4 h) with several dilutions of the corresponding peptide before addition to gp120III-B (2 μg/ml)-coated microtiter wells.

[1] = peptide 50 μg/ml (124R1: a similar concentration), Fab S8 1 μg/ml

Sequence | inhibition of Fab S8-gp120 binding [1] [%] | inhibition of Fab S8-gp120 binding (peptide concentration not given) [%]
FLQPPDFSHLPP [Fab 124R1] | 15 | –
GIQLANPPRLYG [Fab 124R9] | 50 | –
LLADTTHHRPWT [Fab 124R4] | 50 | –
QEVGKAMYAPPI [ENV-9, peptide corresponding to gp120 amino acid residues 428-439] | – | 50
